Test system: human monocyte-derived macrophages (hMDMs)
Test: qRT-PCR / Western blot of activation markers in hMDMs
Type: cell-based
Details: 3 h
Description: Figure 1 BCAT1 expression and inhibition in human macrophages. […] (b) Chemical structure of ERG240 and leucine. (c) Enzymatic activity of recombinant human BCAT1 and BCAT2 in presence of ERG240. (d) Relative expression of IRG1, HIF1A and IL1B measured by qRT-PCR in control, ERG240-treated (20 mM, 3 h), LPS treated (100 ng ml^−1, 3 h), and LPS+ERG240 treated (LPS, 100 ng ml^−1; ERG240, 20 mM for 3 h) hMDMs. ns, non-significant. All expression values are normalized to those obtained for HPRT gene expression. n=3 healthy donor hMDMs were used in each group. (e) Western blot analysis of IRG1, IL-1β, HIF-1α and beta-actin (ACTB) in control (untreated), ERG240-treated (20 mM, 3 h), LPS treated (100 ng ml^−1, 3 h) and LPS+ERG240 treated (LPS, 100 ng ml^−1; ERG240, 20 mM for 3 h) hMDMs. […]
hMDMs were lysed in Laemmli sample buffer supplemented with protease inhibitors and resolved by SDS-PAGE, transferred into PVDF membranes, and subjected to immunoblotting with the primary antibodies described above and secondary detection antibodies. The probed proteins were detected using SuperSignal West Femto Chemiluminescent Substrate (Thermo Fisher Scientific Inc., Rockford, IL). […] Results were analysed using the comparative Ct method and each sample was normalized to the indicated reference gene, to account for any cDNA loading differences. […]

CC(=O)C(C)CCC(=O)O (centres unmarked) [ERG240]
IRG1 protein levels (Western blot) (LPS 100 ng ml^−1 + ERG240 20 mM): reduction in IRG1 levels | IRG1 mRNA levels (LPS-stimulated hMDMs (100 ng ml^−1), ERG240 20 mM): dramatic reduction
